Here are results for 7 compounds from patent US8884011B2, “Nucleotide analogues as precursor molecules for antivirals” (Centre National de la Recherche Scientifique-CNRS, priority 2006, dated 2014).

Where two headings read alike, the source gives them in different places. A value given as a limit tells only on which side of the number the result lay.

One series addresses wild-type RT of HIV-1 (Human immunodeficiency virus type 1 group M subtype B, UniProt P04585). In words: biochemical. The note with it: for Selectivity = (kpol/Kd) natural nucleotide/(kpol/Kd) nucleotide analogue (discrimination): versus dATP. The series is classed as biochemical.
Series [1] has as its system K65R mutant RT of HIV-1. Nature of the series: biochemical. The series is classed as biochemical.
The target in series [2] is K65R mutant RT of HIV-1 (Human immunodeficiency virus type 1 group M subtype B, UniProt P04585, K652R). In words: biochemical. The series is classed as biochemical. As to conditions: for Selectivity = (kpol/Kd) natural nucleotide/(kpol/Kd) nucleotide analogue: versus dATP.
Series [3] in a line: Cytotoxicity by MTT test in cultures of uninfected CMSP. The note with it: human. A general note: Formazan colour is commonly taken as a measure of viable cells.
The subject of series [4] is HBV. Nature of the series: Anti-HBV test in infected HepAD38 cells (intracellular viral DNA by Q-PCR). The note with it: for SI selectivity index (TC50/EC50): HBV, HepAD38 cells; for EC50: Hepatitis B virus, 144 h, infected HepAD38 cells, 50% reduction of viral DNA, day 6 post-induction. The series is classed as cell-based. The method, then: These are hepatoma cells that have been stably transfected with a cDNA copy of the pregenomic RNA of wild-type virus. Withdrawal of tetracycline from the culture medium results in the initiation of viral replication. This offers the advantage, in contrast to the Hep G2.2.15 cell lines commonly used, that there is no, or very limited background viral DNA synthesis. Cells were cultured at 37° C. in a humidified 5% CO2/air atmosphere in seeding medium, DMEM/Ham's F12 (50/50) supplemented with 10% (v/v) heat-inactivated fetal calf serum, 100 IU/ml penicillin, 50 μg/ml streptomycin, 100 Ξg/ml kanamycin, 400 μg/ml G418, and 0.3 μg/ml tetracycline. […] After 2-3 days the cultures were induced for viral production by washing with prewarmed PBS and were fed with […] assay medium (seeding medium without tetracycline and G418) with or without the antiviral compounds. Medium was changed after 3 days. The antiviral effect was quantified by measuring levels of intracellular viral DNA at day 6 post-induction, by a real time quantitative PCR (Q-PCR) method. Total cellular DNA was extracted from the cells by means of a commercial kit. […] The reaction was analyzed using a SDS 7000. A plasmid containing the full length insert of the HBV genome was used to prepare the standard curve. The amount of viral DNA produced in treated cultures was expressed as a percentage of the mock treated samples. […] The cytostatic effect of the various compounds was assessed employing the parent hepatoma cell line HepG2. The effect of the compounds on exponentially growing HepG2 cells was evaluated by means of the MTS method. Briefly, cells were seeded at a density of 3000/well (96 well plate) and were allowed to proliferate for 3 days in the absence or presence of compounds after which the optical density was measured with a 96-well plate reader and cell density was determined.

A short description of series [5]: Cytostatic effect on parent hepatoma cell line HepG2 (MTS method). As to conditions: human.
In the next series the test system is HIV-1-LAI. In words: Anti-HIV test in CMSP cultures infected by HIV-1-LAI (RT activity in supernatants). In kind it is cell-based. The note with it: for IT (selectivity index, TC50/EC50): HIV-1 (LAI), CMSP; for EC50: Human immunodeficiency virus 1, 168 h, read-out: EC50 (μM) HIV-1 (LAI).
Series [6] deals with HBV. In words: Anti-HBV test in infected Huh7 cells. The note with it: Hepatitis B virus. The series is classed as cell-based.
Where [7] appears, read: affinities of the RT for the analogues (Kd), wild-type RT, unit inferred.

What is called Kd is a measure of binding affinity in units of concentration. In turn, `Nc1ncnc2c1ncn2CCOCP(O)(=S)OP(=O)(O)OP(=O)(O)O` (stereo not shown) [Compound 12, 9-[2-(diphosphorylthiophosphonomethoxy)ethyl]adenine] showed a Kd at wild-type RT of HIV-1 (setting [7]) of 1.2 µM. In addition, on wild-type RT of HIV-1 (wild-type RT), the “incorporation velocity, times lower than that of natural nucleotide dATP” value was 90 times; the “kpol” value was determined as 0.55 s⁻¹; the kpol/Kd is 0.5; the “Selectivity = (kpol/Kd) natural nucleotide/(kpol/Kd) nucleotide analogue (discrimination)” value amounted to 14.5. Further, the “reduction in the incorporation velocity of the nucleotide (factor)” value (“reduction in the incorporation velocity” below) in the series on K65R mutant RT of HIV-1 [1] was 18. At K65R mutant RT of HIV-1 [2], binding was characterised by a dissociation constant (Kd) of 0.7 µM. Moreover, on K65R mutant RT of HIV-1 [2] (K65R mutant RT), the “kpol” value was found to be 0.03 s⁻¹ and the kpol/Kd came to 0.04.
As to `C[C@H](Cn1cnc2c(N)ncnc21)OCP(O)(=S)OP(=O)(O)OP(=O)(O)O` (stereo partly drawn) [Compound 13, (R)-9-[2-(pyrophosphoroxythiophosphonomethoxy)propyl]adenine], the “incorporation velocity, times lower than that of natural nucleotide dATP” value at wild-type RT of HIV-1 is given as 90 times. Also, the “kpol” value on wild-type RT of HIV-1 was found to be 0.58 s⁻¹; at K65R mutant RT of HIV-1 [2] (K65R mutant RT) it was 0.077 s⁻¹. Also, the figures for the kpol/Kd on wild-type RT of HIV-1 and on K65R mutant RT of HIV-1 [2] (K65R mutant RT) were 0.11 and 0.03, respectively. The equilibrium dissociation constant (Kd) on wild-type RT of HIV-1 (Kd (μM), wild-type RT) is 5.2 µM; on wild-type RT of HIV-1 (setting [7]), 5.5 µM; at K65R mutant RT of HIV-1 [2], 2.7 µM. For the same compound, the “Selectivity = (kpol/Kd) natural nucleotide/(kpol/Kd) nucleotide analogue (discrimination)” value on wild-type RT of HIV-1 (wild-type RT) was determined as 59.8.
What is called CC50 is the concentration that lowers cell viability or growth by half. A word on the EC50: it is the concentration needed to bring the measured effect to its halfway point. In the case of `Nc1ncnc2c1ncn2CCOCP(=O)(O)O` [PMEA, 9-(2-(phosphonomethoxy)ethyl)adenine], the CC50 at 7 days in series [3] was > 19 µM. Besides, the “SI selectivity index (TC50/EC50)” value in the series with HBV [4] is >23. Besides, the EC50 in the series with HBV [4] is 8.8 µM; with HIV-1-LAI (CMSP cultures, 7 days, RT activity in supernatants), 1.9 µM; with HBV [6] (Huh-7, infected Huh7 cells, 50% reduction of viral DNA, read-out: EC50 (μM) HBV), 6 µM. For the same compound, the 50% cytotoxic concentration (CC50) at 3 days in series [5] was > 200 µM. For the same compound, in the series with HIV-1-LAI, the “IT (selectivity index, TC50/EC50)” value is >5.
As for `Nc1ncnc2c1ncn2CCOCP(=O)(O)OP(=O)(O)OP(=O)(O)O` [PMEApp, PMEA diphosphate], at wild-type RT of HIV-1 (wild-type RT), the “kpol” value worked out at 6.8 s⁻¹, the kpol/Kd stood at 0.86 and the “Selectivity = (kpol/Kd) natural nucleotide/(kpol/Kd) nucleotide analogue (discrimination)” value is 7.8. For the same compound, the Kd on wild-type RT of HIV-1 (wild-type RT, read-out: Kd) was determined as 7.9 µM. Besides, in the series on K65R mutant RT of HIV-1 [1], the “reduction in the incorporation velocity” value was 9. Moreover, at K65R mutant RT of HIV-1 [2] (K65R mutant RT), the dissociation constant Kd came to 7.7 µM, the “kpol” value came out at 0.75 s⁻¹, the kpol/Kd is listed as 0.1 and the “Selectivity = (kpol/Kd) natural nucleotide/(kpol/Kd) nucleotide analogue” value is recorded as 16.9.
Consider `CC(Cn1cnc2c(N)ncnc21)OCP(=O)(O)O` (stereo not shown) [PMPA, 9-(2-(phosphonomethoxy)propyl)adenine], for which, in series [3], the 50% cytotoxic concentration (CC50) at 7 days was > 100 µM. For the same compound, in the series with HBV [4], the “SI selectivity index (TC50/EC50)” value was >12 and a half-maximal effect (EC50) was put at 2.88 µM. Further, the CC50 at 3 days in series [5] (exponentially growing HepG2 cells) is > 35 µM. Also, in the series on HIV-1-LAI, the “IT (selectivity index, TC50/EC50)” value is reported as >77 and the EC50 stood at 1.3 µM. In addition, the EC50 in the series on HBV [6] (Huh-7, read-out: EC50 (μM) HBV) came out at 4 µM.
For the compound `C[C@@H](Cn1cnc2c(N)ncnc21)OCP(=O)(O)OP(=O)(O)OP(=O)(O)O` [PMPApp, PMPA diphosphate], at wild-type RT of HIV-1 (wild-type RT), the “kpol” value was 7 s⁻¹, the kpol/Kd came to 0.3 and the “Selectivity = (kpol/Kd) natural nucleotide/(kpol/Kd) nucleotide analogue (discrimination)” value is 22.3. In addition, the “Selectivity = (kpol/Kd) natural nucleotide/(kpol/Kd) nucleotide analogue (discrimination)” value at wild-type RT of HIV-1 (wild-type RT, listed as PMPADP) is 22. In addition, the dissociation constant (Kd) at wild-type RT of HIV-1 (wild-type RT, read-out: Kd) was 23 µM. Also, the “reduction in the incorporation velocity” value in the series with K65R mutant RT of HIV-1 [1] turned out to be 22. For the same compound, at K65R mutant RT of HIV-1 [2] (K65R mutant RT), the equilibrium dissociation constant (Kd) came out at 18 µM, the “kpol” value came out at 0.32 s⁻¹, the kpol/Kd worked out at 0.017 and the “Selectivity = (kpol/Kd) natural nucleotide/(kpol/Kd) nucleotide analogue” value is listed as 99.4.
With `Nc1ncnc2c1ncn2[C@H]1C[C@H](O)[C@@H](COP(=O)(O)OP(=O)(O)OP(=O)(O)O)O1` [dATP], the figures for the “kpol” value on wild-type RT of HIV-1 (wild-type RT) and at K65R mutant RT of HIV-1 [2] (K65R mutant RT) were 50.16 s⁻¹ and 11.63 s⁻¹, respectively. Moreover, the kpol/Kd came out at 6.71 at wild-type RT of HIV-1 (wild-type RT) and 1.69 on K65R mutant RT of HIV-1 [2] (K65R mutant RT). The dissociation constant Kd at wild-type RT of HIV-1 (wild-type RT, read-out: Kd) amounted to 7.47 µM; at wild-type RT of HIV-1 (wild-type RT, unit inferred, read-out: affinities of the RT for the analogues (Kd)), 7.5 µM; on K65R mutant RT of HIV-1 [2] (K65R mutant RT) it was 6.89 µM.
